The conditions of data set [1]: 100 kPa, Liquid, Vibrating tube method.
Data set [2] can be described thus: wn = mass fraction of the nth substance listed. The note with it: 100 kPa, Liquid, Vibrating tube method.
Data set [3] can be described thus: refractive index (Na D-line) (dimensionless); wn = mass fraction of the nth substance listed. The note with it: 100 kPa, Liquid, Standard Abbe refractometry.

These results are taken from the NIST ThermoML archive (doi:10.1016/j.jct.2014.05.013).

± gives the expanded uncertainty stated by the source.

Consider `CNC=O` [N-methylformamide], for which the mass density in data set [1] (288.15 K) worked out at 1007.94 ± 1 kg/m3; in data set [1] (298.15 K), 999.25 ± 1 kg/m3; in data set [1] (308.15 K) it was 990.63 ± 1 kg/m3.
`CNC=O` [N-methylformamide] + O: the mass density in data set [2] (288.15 K, w1 = 0.2) was determined as 1010.26 ± 1 kg/m3; in data set [2] (288.15 K, w1 = 0.4), 1019.56 ± 1 kg/m3; in data set [2] (288.15 K, w1 = 0.6), 1023.57 ± 1 kg/m3; in data set [2] (288.15 K, w1 = 0.8), 1019.32 ± 1 kg/m3; in data set [2] (288.15 K, w1 = 1) it was 1007.94 ± 1 kg/m3; in data set [2] (298.15 K, w1 = 0.2), 1006.21 ± 1 kg/m3. Moreover, the mass density worked out at 1013.7 ± 1 kg/m3 in data set [2] (298.15 K, w1 = 0.4); 1016.29 ± 1 kg/m3 in data set [2] (298.15 K, w1 = 0.6); 1011.11 ± 1 kg/m3 in data set [2] (298.15 K, w1 = 0.8); 999.25 ± 1 kg/m3 in data set [2] (298.15 K, w1 = 1); 1001.56 ± 1 kg/m3 in data set [2] (308.15 K, w1 = 0.2); 1007.51 ± 1 kg/m3 in data set [2] (308.15 K, w1 = 0.4). In addition, the mass density is recorded as 1008.9 ± 1 kg/m3 in data set [2] (308.15 K, w1 = 0.6); 1003.04 ± 1 kg/m3 in data set [2] (308.15 K, w1 = 0.8); 990.63 ± 1 kg/m3 in data set [2] (308.15 K, w1 = 1).
In the case of `[Cl-].[Cs+]` [cesium chloride] + CN(C)C=O, the refractive index turned out to be 1.43298 ± 0.00032 in data set [3] (288.15 K, w1 = 0.0005); 1.4292 ± 0.00032 in data set [3] (298.15 K, w1 = 0.0008); 1.42658 ± 0.00032 in data set [3] (308.15 K, w1 = 0.0016). In addition, the mass density in data set [2] (288.15 K, w1 = 0.0005) is listed as 961.27 ± 1 kg/m3; in data set [2] (298.15 K, w1 = 0.0008), 944.51 ± 1 kg/m3; in data set [2] (308.15 K, w1 = 0.0016), 937.54 ± 1 kg/m3.
Consider `[Cl-].[Cs+]` [cesium chloride] + CNC=O, for which the refractive index in data set [3] (288.15 K, w1 = 0.0585) turned out to be 1.43767 ± 0.00032; in data set [3] (298.15 K, w1 = 0.0599) it was 1.43465 ± 0.00032; in data set [3] (308.15 K, w1 = 0.062), 1.43161 ± 0.00032. Besides, the mass density in data set [2] (288.15 K, w1 = 0.0585) was 1054.35 ± 1.2 kg/m3; in data set [2] (298.15 K, w1 = 0.0599), 1046.14 ± 1.2 kg/m3; in data set [2] (308.15 K, w1 = 0.062) it was 1038.58 ± 1.2 kg/m3.
For the molecule `[Cl-].[Cs+]` [cesium chloride] + NC=O, the refractive index is reported as 1.46286 ± 0.00032 in data set [3] (288.15 K, w1 = 0.2292); 1.46096 ± 0.00032 in data set [3] (298.15 K, w1 = 0.2331); 1.45811 ± 0.00032 in data set [3] (308.15 K, w1 = 0.2412). For the same molecule, the mass density in data set [2] (288.15 K, w1 = 0.2292) is 1359.39 ± 1.3 kg/m3; in data set [2] (298.15 K, w1 = 0.2331), 1354.37 ± 1.3 kg/m3; in data set [2] (308.15 K, w1 = 0.2412), 1354.14 ± 1.3 kg/m3.
As to `[Cl-].[Cs+]` [cesium chloride] + O, the refractive index was determined as 1.41803 ± 0.00032 in data set [3] (288.15 K, w1 = 0.646); 1.41971 ± 0.00032 in data set [3] (298.15 K, w1 = 0.6545); 1.42086 ± 0.00032 in data set [3] (308.15 K, w1 = 0.6666). The mass density in data set [2] (288.15 K, w1 = 0.646) is given as 1894.15 ± 1.5 kg/m3; in data set [2] (298.15 K, w1 = 0.6545), 1921.87 ± 1.5 kg/m3; in data set [2] (308.15 K, w1 = 0.6666), 1947.03 ± 1.6 kg/m3.
As for `CN(C)C=O` [dimethylformamide], the mass density in data set [1] (288.15 K) is listed as 953.53 ± 1 kg/m3; in data set [1] (298.15 K) it was 943.89 ± 1 kg/m3; in data set [1] (308.15 K), 934.39 ± 1 kg/m3.
Regarding `CN(C)C=O` [dimethylformamide] + O, the mass density in data set [2] (288.15 K, w1 = 0.2) was 1000.62 ± 1 kg/m3; in data set [2] (288.15 K, w1 = 0.4), 1003.56 ± 1 kg/m3; in data set [2] (288.15 K, w1 = 0.6), 1001.34 ± 1 kg/m3; in data set [2] (288.15 K, w1 = 0.8), 986.63 ± 1 kg/m3; in data set [2] (288.15 K, w1 = 1) it was 953.53 ± 1 kg/m3; in data set [2] (298.15 K, w1 = 0.2) it was 996.32 ± 1 kg/m3. The mass density in data set [2] (298.15 K, w1 = 0.4) is reported as 996.99 ± 1 kg/m3; in data set [2] (298.15 K, w1 = 0.6), 992.97 ± 1 kg/m3; in data set [2] (298.15 K, w1 = 0.8), 977.38 ± 1 kg/m3; in data set [2] (298.15 K, w1 = 1), 943.89 ± 1 kg/m3; in data set [2] (308.15 K, w1 = 0.2), 991.45 ± 1 kg/m3; in data set [2] (308.15 K, w1 = 0.4), 990 ± 1 kg/m3. Besides, the mass density in data set [2] (308.15 K, w1 = 0.6) came out at 984.33 ± 1 kg/m3; in data set [2] (308.15 K, w1 = 0.8), 968.07 ± 1 kg/m3; in data set [2] (308.15 K, w1 = 1), 934.39 ± 1 kg/m3.
For the molecule `NC=O` [formamide], the mass density is on record as 1137.8 ± 1 kg/m3 in data set [1] (288.15 K), 1129.18 ± 1 kg/m3 in data set [1] (298.15 K) and 1120.75 ± 1 kg/m3 in data set [1] (308.15 K).
On to `NC=O` [formamide] + O, for which the mass density in data set [2] (288.15 K, w1 = 0.2) is given as 1030.04 ± 1 kg/m3; in data set [2] (288.15 K, w1 = 0.4), 1058.41 ± 1 kg/m3; in data set [2] (288.15 K, w1 = 0.6) it was 1085.67 ± 1 kg/m3; in data set [2] (288.15 K, w1 = 0.8), 1111.83 ± 1 kg/m3; in data set [2] (288.15 K, w1 = 1) it was 1137.8 ± 1 kg/m3; in data set [2] (298.15 K, w1 = 0.2), 1025.59 ± 1 kg/m3. For the same molecule, the mass density in data set [2] (298.15 K, w1 = 0.4) came to 1052.51 ± 1 kg/m3; in data set [2] (298.15 K, w1 = 0.6) it was 1078.6 ± 1 kg/m3; in data set [2] (298.15 K, w1 = 0.8), 1103.81 ± 1 kg/m3; in data set [2] (298.15 K, w1 = 1) it was 1129.18 ± 1 kg/m3; in data set [2] (308.15 K, w1 = 0.2), 1020.7 ± 1 kg/m3; in data set [2] (308.15 K, w1 = 0.4), 1046.35 ± 1 kg/m3. The mass density in data set [2] (308.15 K, w1 = 0.6) turned out to be 1071.43 ± 1 kg/m3; in data set [2] (308.15 K, w1 = 0.8), 1095.93 ± 1 kg/m3; in data set [2] (308.15 K, w1 = 1) it was 1120.75 ± 1 kg/m3.
On to `O` [water], for which, in data set [1] (288.15 K), the mass density is 999 ± 1 kg/m3.
Turning to `O` [water] + CN(C)C=O, the mass density in data set [2] (288.15 K, w2 = 0) was determined as 999 ± 1 kg/m3.
For `O` [water] + CNC=O, the mass density in data set [2] (288.15 K, w2 = 0) worked out at 999 ± 1 kg/m3.
As to `O` [water] + NC=O, the mass density in data set [2] (288.15 K, w2 = 0) is given as 999 ± 1 kg/m3.
